Experimental data published in patent US20090076140A1, “PHARMACEUTICAL COMPOSITIONS CONTAINING SULPHONIC ACID DERIVATIVES” (ITALFARMACO, S. A., priority 2003, published 2009).
“Also recorded” adds a separate entry of the source.

How the values were obtained:
[1] = tested on: quiescent fibroblasts (Balb/c 3T3); assay: toxicity analysis for quiescent fibroblasts (culture in the absence of aFGF); format: cell-based; conditions: for toxicity for quiescent fibroblasts: within the concentration range tested / in which aFGF mitogenic activity is inhibited
aFGF = aFGF (Homo sapiens, UniProt P05230); assay: aFGF-induced mitogenesis inhibition test on fibroblasts in culture; format: cell-based; design: the aFGF of 139 amino acid residues; conditions: for aFGF-induced mitogenic activity inhibition (in words): Balb/c 3T3 fibroblasts, 60 hours, MIHS 20 μg/mL, aFGF 0.32 ng/mL
Chain of aFGF (P05230 16-155 limits assumed): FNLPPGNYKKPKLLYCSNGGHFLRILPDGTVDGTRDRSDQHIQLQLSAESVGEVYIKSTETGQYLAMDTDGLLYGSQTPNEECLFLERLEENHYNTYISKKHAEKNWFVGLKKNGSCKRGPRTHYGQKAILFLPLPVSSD

SMILES	toxicity for quiescent fibroblasts [1]	aFGF-induced mitogenic activity inhibition (in words) (aFGF)	also measured
Cc1ccc2ccccc2c1S(=O)(=O)[O-].[Na+] [Compound C-2, sodium 2-methyl-1-naphthalenesulfonate]	certain toxic effect	aFGF-induced mitogenic activity inhibitors	–
Nc1ccc(S(=O)(=O)[O-])c2ccccc12.[Na+] [Compound C-3, sodium 4-amino-1-naphthalenesulfonate]	not toxic	low aFGF-induced mitogenesis inhibitory activity	–
CC(=O)Nc1ccc(S(=O)(=O)[O-])c2ccccc12.[Na+] [Compound C-4, sodium 4-acetylamino-1-naphthalenesulfonate]	certain toxic effect	aFGF-induced mitogenic activity inhibitors	–
O=C(Nc1ccc(S(=O)(=O)[O-])c2ccccc12)c1ccccc1.[Na+] [Compound C-5, sodium 4-benzoylamino-1-naphthalenesulfonate]	not toxic	low aFGF-induced mitogenesis inhibitory activity	–
CN(C)c1cccc2c(S(=O)(=O)[O-])cccc12.[Na+] [Compound C-6, sodium 5-dimethylamino-1-naphthalenesulfonate]	certain toxic effect	aFGF-induced mitogenic activity inhibitors	–
Nc1c(O)cc(S(=O)(=O)[O-])c2ccccc12.[Na+] [Compound C-7, sodium 4-amino-3-hydroxy-1-naphthalenesulfonate]	certain toxic effect	aFGF-induced mitogenic activity inhibitors; also recorded: best aFGF-induced mitogenic activity inhibitory activity	proliferation of quiescent fibroblasts cultured in the absence of aFGF ([1]; at concentrations exceeding 0.2 mM): significantly increases; IC50 rank among the tested compounds (aFGF; aFGF-induced mitogenesis): lowest IC50
O=S(=O)(O)c1ccc2ccccc2c1 [Compound C-8, 2-naphthalenesulfonic acid]	toxic	inhibits aFGF-induced mitogenic activity at lower concentrations than compound C-1	aFGF-induced mitogenic activity inhibition (in words) (aFGF; listed as 2-NMS): inhibits aFGF-induced mitogenic activity
O=C(Nc1cccc2cc(S(=O)(=O)[O-])ccc12)c1ccccc1.[Na+] [Compound C-11, sodium 5-benzoylamino-2-naphthalenesulfonate]	–	aFGF-induced mitogenic activity inhibitors	aFGF-induced mitogenic inhibitory activity compared between compounds (stereochemical guidelines) (aFGF; C-9 and C-17 vs. C-14 and C-18, C-10, C-11, C-13 vs. C-9, 2-NMS vs 1-NMS series): significant reduction
Nc1ccc2c(O)cc(S(=O)(=O)[O-])cc2c1.[Na+] [Compound C-18, sodium 7-amino-4-hydroxy-2-naphthalenesulfonate]	–	aFGF-induced mitogenic activity inhibitors	–
CC(=O)Nc1ccc2c(O)cc(S(=O)(=O)[O-])cc2c1.[Na+] [Compound C-19, sodium 7-acetylamino-4-hydroxy-2-naphthalenesulfonate]	–	–	mitogenesis inductor / tumorigenic effect on quiescent fibroblasts in the absence of aFGF [1]: certain tumorigenic effect
NCc1ccc(S(=O)(=O)[O-])cc1.[Na+] [Compound C-21, sodium 4-(aminomethyl)benzenesulfonate]	–	–	mitogenesis inductor / tumorigenic effect on quiescent fibroblasts in the absence of aFGF [1]: certain tumorigenic effect
CN(C)Cc1cc2cc(S(=O)(=O)O)ccc2[nH]1 [Compound C-25, 2-[(dimethylamino)methyl]-1H-indole-5-sulfonic acid]	–	–	mitogenesis inductor / tumorigenic effect on quiescent fibroblasts in the absence of aFGF [1]: certain tumorigenic effect
